pEC50: −log10 of the molar value. Entries after “also recorded” stand apart in the source; their conditions may differ. Like-named read-outs stand apart in the source and are kept apart here.
Key:
PTPN2 = molecular target: T1, PTPN2 (Homo sapiens, UniProt P17706); assay: Western blot, PTPN2 degradation in HEK293T cells; assay type: cell-based; conditions: 48 hours incubation; for DC50 / Dmax: Western blot; for DC50: read-out: Relative DC50, PTPN2 degradation; for Dmax: HEK-293T
T1 construct: endogenous in cells; host or cells: HEK293T
T1 sequence (P17706 1-415): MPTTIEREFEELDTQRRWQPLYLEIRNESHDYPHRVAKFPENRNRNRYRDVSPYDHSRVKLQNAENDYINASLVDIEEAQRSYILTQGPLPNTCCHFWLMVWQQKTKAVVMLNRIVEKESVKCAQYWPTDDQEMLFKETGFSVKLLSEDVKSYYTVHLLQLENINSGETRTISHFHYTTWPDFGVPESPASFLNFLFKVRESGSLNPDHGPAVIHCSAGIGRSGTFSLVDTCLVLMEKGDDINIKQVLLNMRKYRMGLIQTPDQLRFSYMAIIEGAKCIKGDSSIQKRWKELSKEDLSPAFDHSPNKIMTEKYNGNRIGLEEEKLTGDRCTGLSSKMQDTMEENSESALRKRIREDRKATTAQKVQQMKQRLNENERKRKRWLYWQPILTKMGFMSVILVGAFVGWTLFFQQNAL
Experimental: (§1) 1. Sample preparation: 150,000 HEK293T cells per well were seeded in a 24-well plate and incubated overnight. Compounds were added to the wells at the final concentrations of 20 μM, 10 μM, 5 μM, 2 μM, 1 μM, 500 nM, 200 nM, 100 nM, 50 nM, 20 nM, 5 nM, 0 nM (solvent control) and medium (negative control) and incubated for 48 hours. After incubation, the supernatants were discarded. Cells were washed with pre-chilled PBS once, 40 μL cell lysis buffer were added to lyse the cells and then centrifuged at 14000 g, 4° C. for 20 mins. The supernatant was aspirated and the protein concentration were quantified. 5× loading buffer was added into the samples, and the samples were heated at 70° C. for 10 minutes.
(§2) 2. Experimental procedure: 20 μg protein were added to each well then start SDS-PAGE electrophoresis. The protein was transferred to the PVDF membrane.
(§3) The blotting current was set at 250 mA for 90 min. 5% BSA in TBST was used to block the membrane for 1 h at room temperature. After diluting the primary antibody according to Table 2, the membrane was hybridized overnight at 4° C. The membrane was washed three times with TBST, 7 minutes each time. After diluting the secondary antibody, the membrane was incubated for 2 h at room temperature. The membrane was washed three times with TBST for 7 min each time.
(§4) ImageJ software was used to detect the gray value of each band and enter it into the following formula as the degradation rate (D): […]
(§5) D is the degradation rate, V refers to the gray value: target refers to the name of the protein targeted for degradation, housekeeping refers to housekeeping proteins such as GAPDH and beta-actin: DMSO refers to the solvent DMSO added only to dissolve PROTAC and incubate cells: Lane X refers to a lane with a specific incubation concentration; Lane Y refers to a lane where only the solvent DMSO is added to incubate cells.
(§6) A graph was drawn with degradation rate as the vertical axis and drug incubation concentration as the horizontal axis, and DC50 and Dmax were read and recorded in Tables 3, 4, 5 and 6.

[1] = test system: HEK293/Luc (IFN-γ) stable cell line; assay: Luciferase reporter assay in HEK293/Luc (IFN-γ) cells; assay type: cell-based; conditions: Homo sapiens; stimulated with 30 ng/mL IFN-γ in HEK293/Luc; 6 h incubation; read-out: Absolute EC50
Experimental: HEK293/Luc (IFN-γ) stable cell line (Cat: M00953) and Fire-Lumi luciferase detection kit (Cat: L00877C) were purchased from GenScript. The complete culture medium formulation was DMEM containing 10% FBS and 1% Penicillin-Streptomycin. For EC50 detection, 60 μL HEK293/Luc (IFN-γ) cells were seeded at the density of 10,000 cells/well into 384 well assay plates (761601, NEST) using the medium above mentioned.
The working solutions for each sample were prepared triplicated at 9 gradient doses, starting from 10 µM and diluted by 4 folds. The IFN-γ working solution was prepared at 0.8 ng/mL concentration. The sample working solution and IFN-γ working solution were mixed at the volume of 1:1, and then 20 μl/well of the aliquot was added into the 384-well plate and cells were incubated at 37° C./5% CO2 for 6 h. 40 μL/well prewarmed detection reagents were added into the cells. Luminescent signals could be determined after 5-minute incubation. The data were plotted and four-parameter fitting was performed on the test data to obtain the relative EC50 value of the curve by Prism GraphPad 9 software (Table 1).

PTP1B = molecular target: T2, PTP1B (Homo sapiens, UniProt P18031); assay: Western blot, PTP1B degradation in HEK293T cells; assay type: cell-based; conditions: 48 hours incubation; for DC50 / Dmax: Western blot; for DC50: read-out: Relative DC50, PTP1B degradation; for Dmax: HEK-293T
T2 construct: endogenous in cells; host or cells: HEK293T
T2 sequence (P18031 1-435): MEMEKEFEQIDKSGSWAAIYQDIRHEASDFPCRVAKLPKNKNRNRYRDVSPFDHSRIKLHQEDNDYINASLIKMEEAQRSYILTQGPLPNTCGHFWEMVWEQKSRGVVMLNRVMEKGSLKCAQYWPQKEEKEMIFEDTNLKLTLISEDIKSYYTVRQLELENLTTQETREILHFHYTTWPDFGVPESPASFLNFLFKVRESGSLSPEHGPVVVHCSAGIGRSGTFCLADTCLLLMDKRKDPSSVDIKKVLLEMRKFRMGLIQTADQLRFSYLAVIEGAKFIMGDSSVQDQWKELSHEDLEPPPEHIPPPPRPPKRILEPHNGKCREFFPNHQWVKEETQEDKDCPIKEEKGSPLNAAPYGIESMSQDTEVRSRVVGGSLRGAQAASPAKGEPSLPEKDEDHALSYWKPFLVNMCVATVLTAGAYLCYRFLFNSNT
Experimental: as §1, §2, §3, §4, §5, §6

[2] = PK study in SD rats after a single intravenous administration; assay type: in vivo; conditions: for clearance / concentration at 0.083 h / concentration at 0.25 h / concentration at 0.5 h / concentration at 1 h / concentration at 2 h / concentration at 4 h / concentration at 8 h / concentration at 10 h / concentration at 24 h / AUC(0-t): Sprague-Dawley (SD), rat, plasma; for AUC(0-t): read-out: AUC0-24 h
Experimental: A PK study of the compounds after a single intravenous administration.
SD rats were randomly assigned to 5 groups (3 rats/group). Blood samples were collected from animals at 0.083 h, 0.25 h, 0.5 h, 1 h, 2 h, 4 h, 8 h, 10 h and 24 h after administration. Blood samples were collected in an anticoagulant tube containing EDTA-K2. The concentration of compounds in plasma were determined by an LC-MS/MS method with the lower limit of quantitation (LLOQ) of 0.50 ng/mL. Pharmacokinetic parameters were calculated with WinNonlin to assess the PK characteristics in SD rats. The formulation prescription was DMSO: Cremophor EL: 5% Glucose Solution=5:5:90 (v/v/v).

DC50 (PTPN2) [nM] | Dmax (PTPN2) [%] | clearance ([2]; 1 mg/kg) [mL/min/kg] | concentration at 0.083 h ([2]; 1 mg/kg) [ng/mL] | concentration at 0.25 h ([2]; 1 mg/kg) [ng/mL] | concentration at 0.5 h ([2]; 1 mg/kg) [ng/mL] | concentration at 1 h ([2]; 1 mg/kg) [ng/mL] | concentration at 2 h ([2]; 1 mg/kg) [ng/mL] | concentration at 4 h ([2]; 1 mg/kg) [ng/mL] | concentration at 8 h ([2]; 1 mg/kg) [ng/mL] | concentration at 10 h ([2]; 1 mg/kg) [ng/mL] | concentration at 24 h ([2]; 1 mg/kg, 24 h) [ng/mL] | AUC(0-t) ([2]; 1 mg/kg) [ng·h/mL] | Compound | also measured
38.8 | 96.5 |  |  |  |  |  |  |  |  |  |  |  | CC1(C)CC(Nc2cccc(-c3sc(C(=O)O)c(OCC(=O)O)c3Cl)c2)CCN1S(=O)(=O)Cc1ccc2cnc(N3CCC(c4ccc5c6c(cccc46)C(=O)N5C4CCC(=O)NC4=O)CC3)nc2c1 (stereo not shown) [Compound 16] | 
10.1 | 100 | 0.661 | 18100 | 14600 | 9660 | 5980 | 2890 | 1000 | 372 | 321 | 98.6 | 27200 | CC1(C)CC(Nc2cccc(-c3sc(C(=O)O)c(OCC(=O)O)c3Cl)c2)CCN1S(=O)(=O)Cc1ccc2oc(N3CCC(c4ccc5c6c(cccc46)C(=O)N5C4CCC(=O)NC4=O)CC3)nc2c1 (stereo not shown) [Compound 21] | pEC50 [1]: 7.32; Degradation ability on PTPN2 protein at different concentrations (FIG. 1), in words (PTPN2; 5 nM to 20 μM): good degradation ability on PTPN2 protein in a dose-dependent manner; also recorded: completely degraded at high concentrations; Effect on PTP1B compared with PTPN2 at the same concentration (selectivity, FIG. 1), in words (PTP1B): the degradation ability of PTPN2 is better than that of PTP1B; also recorded: much weaker than that of PTPN2; DC50 (PTP1B): 861 nM; Dmax (PTP1B): 97.3%
 |  | 0.684 | 21700 | 17900 | 12600 | 7110 | 2420 | 525 | 110 | 95.1 | 39.6 | 24700 | O=C(O)COc1c(C(=O)O)sc(-c2cccc(NC3CCN(S(=O)(=O)Cc4ccc5oc(N6CCC(c7ccc8c9c(cccc79)C(=O)N8C7CCC(=O)NC7=O)CC6)nc5c4)CC3)c2)c1Cl (stereo not shown) [Compound 23] | 
51.2 | 97.2 | 0.351 | 21900 | 17000 | 13200 | 8730 | 5430 | 2870 | 1090 | 809 | 206 | 48700 | O=C(O)COc1c(C(=O)O)sc(-c2cccc(NC3CCN(S(=O)(=O)Cc4ccc5oc(N6CCC(c7ccc8c9c(cccc79)C(=O)N8C7CCC(=O)NC7=O)CC6)nc5c4)C4(CC4)C3)c2)c1Cl (stereo not shown) [Compound 57] | 
55.2 | 100 |  |  |  |  |  |  |  |  |  |  |  | CC1(C)CC(Nc2cccc(-c3sc(C(=O)O)c(OC(F)(F)C(=O)O)c3Cl)c2)CCN1S(=O)(=O)Cc1ccc2oc(N3CCC(c4ccc5c6c(cccc46)C(=O)N5C4CCC(=O)NC4=O)CC3)nc2c1 (stereo not shown) [Compound 78] | 
 |  | 0.568 | 19400 | 14900 | 11500 | 7920 | 3810 | 1050 | 345 | 279 | 57.5 | 29700 | [2H]C([2H])(c1ccc2oc(N3CCC(c4ccc5c6c(cccc46)C(=O)N5C4CCC(=O)NC4=O)CC3)nc2c1)S(=O)(=O)N1CCC(Nc2cccc(-c3sc(C(=O)O)c(OCC(=O)O)c3Cl)c2)CC1(C)C (stereo not shown) [Compound 151] | 
29.3 | 96.3 |  |  |  |  |  |  |  |  |  |  |  | CC1(C)C[C@@H](Nc2cccc(-c3sc(C(=O)O)c(OCC(=O)O)c3Cl)c2)CCN1S(=O)(=O)Cc1cccc(NC(=O)N2CCC(c3ccc4c5c(cccc35)C(=O)N4[C@H]3CCC(=O)NC3=O)CC2)c1 [Ref. Cpd, reference compound] | pEC50 [1]: 6.33; DC50 (PTP1B): 271 nM; Dmax (PTP1B): 96.8%; Plasma concentration ([2]; 2 mg/kg, 24 h, LLOQ 0.50 ng/mL): BLOQ; clearance ([2]; 2 mg/kg): 4.46 mL/min/kg; concentration at 0.083 h ([2]; 2 mg/kg): 22700 ng/mL; concentration at 0.25 h ([2]; 2 mg/kg): 8300 ng/mL; concentration at 0.5 h ([2]; 2 mg/kg): 1290 ng/mL; concentration at 1 h ([2]; 2 mg/kg): 318 ng/mL; concentration at 2 h ([2]; 2 mg/kg): 148 ng/mL; concentration at 4 h ([2]; 2 mg/kg): 79.4 ng/mL; concentration at 8 h ([2]; 2 mg/kg): 29.3 ng/mL; concentration at 10 h ([2]; 2 mg/kg): 18.9 ng/mL; AUC(0-t) ([2]; 2 mg/kg): 7490 ng·h/mL

Reference: patent publication US12297193B2, “PTPN2/PTP1B degrader and therapeutic method thereof” (NORTHRIDGE HEALTH GROUP (HONG KONG) CO., LIMITED, priority 2023, dated 2025)
